Test results: PubChem BioAssay AID1259407 (Chemical Carcinogenesis Research Information System (CCRIS), 2018)
Active and inactive are the calls of the source. No rule for the calls is given here.

Test system: CCRIS mutagenicity, Ames/micronucleus/aberration tests
Assay: CCRIS mutagenicity studies
[1] = Test System: AMES SALMONELLA TYPHIMURIUM, Strain/Indicator: TA98, Metabolic Activation: NONE, Method: PREINCUBATION
[2] = Test System: AMES SALMONELLA TYPHIMURIUM, Strain/Indicator: TA100, Metabolic Activation: NONE, Method: PREINCUBATION
[3] = Test System: AMES SALMONELLA TYPHIMURIUM, Strain/Indicator: TA1535, Metabolic Activation: NONE, Method: PREINCUBATION
[4] = Test System: AMES SALMONELLA TYPHIMURIUM, Strain/Indicator: TA1537, Metabolic Activation: NONE, Method: PREINCUBATION

Measured: mutagenic call

C[Si]1(C)O[Si](C)(C)O[Si](C)(C)O[Si](C)(C)O1
inactive: [1] inactive; negative | Test System: AMES SALMONELLA TYPHIMURIUM, Strain/Indicator: TA98, Metabolic Activation: NONE, Method: STANDARD PLATE inactive; negative | Test System: AMES SALMONELLA TYPHIMURIUM, Strain/Indicator: TA98, Metabolic Activation: RAT LIVER S-9, AROCLOR 1254, Method: PREINCUBATION inactive; negative | Test System: AMES SALMONELLA TYPHIMURIUM, Strain/Indicator: TA98, Metabolic Activation: RAT LIVER S-9, AROCLOR 1254, Method: STANDARD PLATE inactive; negative | [2] inactive; negative | Test System: AMES SALMONELLA TYPHIMURIUM, Strain/Indicator: TA100, Metabolic Activation: NONE, Method: STANDARD PLATE inactive; negative | Test System: AMES SALMONELLA TYPHIMURIUM, Strain/Indicator: TA100, Metabolic Activation: RAT LIVER S-9, AROCLOR 1254, Method: PREINCUBATION inactive; negative | Test System: AMES SALMONELLA TYPHIMURIUM, Strain/Indicator: TA100, Metabolic Activation: RAT LIVER S-9, AROCLOR 1254, Method: STANDARD PLATE inactive; negative | [3] inactive; negative | Test System: AMES SALMONELLA TYPHIMURIUM, Strain/Indicator: TA1535, Metabolic Activation: NONE, Method: STANDARD PLATE inactive; negative | Test System: AMES SALMONELLA TYPHIMURIUM, Strain/Indicator: TA1535, Metabolic Activation: RAT LIVER S-9, AROCLOR 1254, Method: PREINCUBATION inactive; negative | Test System: AMES SALMONELLA TYPHIMURIUM, Strain/Indicator: TA1535, Metabolic Activation: RAT LIVER S-9, AROCLOR 1254, Method: STANDARD PLATE inactive; negative | [4] inactive; negative | Test System: AMES SALMONELLA TYPHIMURIUM, Strain/Indicator: TA1537, Metabolic Activation: NONE, Method: STANDARD PLATE inactive; negative | Test System: AMES SALMONELLA TYPHIMURIUM, Strain/Indicator: TA1537, Metabolic Activation: RAT LIVER S-9, AROCLOR 1254, Method: PREINCUBATION inactive; negative | Test System: AMES SALMONELLA TYPHIMURIUM, Strain/Indicator: TA1537, Metabolic Activation: RAT LIVER S-9, AROCLOR 1254, Method: STANDARD PLATE inactive; negative | Test System: AMES SALMONELLA TYPHIMURIUM, Strain/Indicator: TA1538, Metabolic Activation: NONE, Method: PREINCUBATION inactive; negative | Test System: AMES SALMONELLA TYPHIMURIUM, Strain/Indicator: TA1538, Metabolic Activation: NONE, Method: STANDARD PLATE inactive; negative | Test System: AMES SALMONELLA TYPHIMURIUM, Strain/Indicator: TA1538, Metabolic Activation: RAT LIVER S-9, AROCLOR 1254, Method: PREINCUBATION inactive; negative | Test System: AMES SALMONELLA TYPHIMURIUM, Strain/Indicator: TA1538, Metabolic Activation: RAT LIVER S-9, AROCLOR 1254, Method: STANDARD PLATE inactive; negative | Test System: E. COLI, Strain/Indicator: P3078 POLA, Metabolic Activation: NONE, Method: SPOT TEST inactive; negative | Test System: E. COLI, Strain/Indicator: P3078 POLA, Metabolic Activation: RAT LIVER S-9, AROCLOR 1254, Method: SPOT TEST inactive; negative | Test System: E. COLI, Strain/Indicator: W3110, Metabolic Activation: NONE, Method: SPOT TEST inactive; negative | Test System: E. COLI, Strain/Indicator: W3110, Metabolic Activation: RAT LIVER S-9, AROCLOR 1254, Method: SPOT TEST inactive; negative | Test System: MOUSE LYMPHOMA, Strain/Indicator: L5178Y (TK+/TK-), Metabolic Activation: NONE, Method: SUSPENSION/PLATE inactive; negative | Test System: MOUSE LYMPHOMA, Strain/Indicator: L5178Y (TK+/TK-), Metabolic Activation: RAT, LIVER, S-9, Method: SUSPENSION/PLATE inactive; negative | Test System: Mouse lymphoma, Strain/Indicator: L5178Y (tk+/tk-), Metabolic Activation: None, Method: Suspension/plate inactive; inconclusive (previous evaluation negative) | Test System: Mouse lymphoma, Strain/Indicator: L5178Y (tk+/tk-), Metabolic Activation: Rat, Liver, S-9, Aroclor 1254, Method: Suspension/plate inactive; negative

CC(=O)OCCC(C)C
inactive: Test System: AMES SALMONELLA TYPHIMURIUM, Strain/Indicator: TA97, Metabolic Activation: HAMSTER, LIVER, S-9, AROCLOR 1254 (10%), Method: PREINCUBATION inactive; negative | Test System: AMES SALMONELLA TYPHIMURIUM, Strain/Indicator: TA97, Metabolic Activation: HAMSTER, LIVER, S-9, AROCLOR 1254 (30%), Method: PREINCUBATION inactive; negative | Test System: AMES SALMONELLA TYPHIMURIUM, Strain/Indicator: TA97, Metabolic Activation: NONE, Method: PREINCUBATION inactive; negative | Test System: AMES SALMONELLA TYPHIMURIUM, Strain/Indicator: TA97, Metabolic Activation: RAT, LIVER, S-9, AROCLOR 1254 (10%), Method: PREINCUBATION inactive; negative | Test System: AMES SALMONELLA TYPHIMURIUM, Strain/Indicator: TA97, Metabolic Activation: RAT, LIVER, S-9, AROCLOR 1254 (30%), Method: PREINCUBATION inactive; negative | Test System: AMES SALMONELLA TYPHIMURIUM, Strain/Indicator: TA98, Metabolic Activation: HAMSTER, LIVER, S-9, AROCLOR 1254 (10%), Method: PREINCUBATION inactive; negative | Test System: AMES SALMONELLA TYPHIMURIUM, Strain/Indicator: TA98, Metabolic Activation: HAMSTER, LIVER, S-9, AROCLOR 1254 (30%), Method: PREINCUBATION inactive; negative | [1] inactive; negative | Test System: AMES SALMONELLA TYPHIMURIUM, Strain/Indicator: TA98, Metabolic Activation: RAT, LIVER, S-9, AROCLOR 1254 (10%), Method: PREINCUBATION inactive; negative | Test System: AMES SALMONELLA TYPHIMURIUM, Strain/Indicator: TA98, Metabolic Activation: RAT, LIVER, S-9, AROCLOR 1254 (30%), Method: PREINCUBATION inactive; negative | Test System: AMES SALMONELLA TYPHIMURIUM, Strain/Indicator: TA100, Metabolic Activation: HAMSTER, LIVER, S-9, AROCLOR 1254 (10%), Method: PREINCUBATION inactive; negative | Test System: AMES SALMONELLA TYPHIMURIUM, Strain/Indicator: TA100, Metabolic Activation: HAMSTER, LIVER, S-9, AROCLOR 1254 (30%), Method: PREINCUBATION inactive; negative | [2] inactive; negative | Test System: AMES SALMONELLA TYPHIMURIUM, Strain/Indicator: TA100, Metabolic Activation: RAT, LIVER, S-9, AROCLOR 1254 (10 OR 30%), Method: PREINCUBATION inactive; negative | Test System: AMES SALMONELLA TYPHIMURIUM, Strain/Indicator: TA1535, Metabolic Activation: HAMSTER, LIVER, S-9, AROCLOR 1254 (10%), Method: PREINCUBATION inactive; negative | Test System: AMES SALMONELLA TYPHIMURIUM, Strain/Indicator: TA1535, Metabolic Activation: HAMSTER, LIVER, S-9, AROCLOR 1254 (30%), Method: PREINCUBATION inactive; negative | [3] inactive; negative | Test System: AMES SALMONELLA TYPHIMURIUM, Strain/Indicator: TA1535, Metabolic Activation: RAT, LIVER, S-9, AROCLOR 1254 (10%), Method: PREINCUBATION inactive; negative | Test System: AMES SALMONELLA TYPHIMURIUM, Strain/Indicator: TA1535, Metabolic Activation: RAT, LIVER, S-9, AROCLOR 1254 (30%), Method: PREINCUBATION inactive; negative | Test System: AMES SALMONELLA TYPHIMURIUM, Strain/Indicator: TA1537, Metabolic Activation: HAMSTER, LIVER, S-9, AROCLOR 1254 (30%), Method: PREINCUBATION inactive; negative | [4] inactive; negative | Test System: AMES SALMONELLA TYPHIMURIUM, Strain/Indicator: TA1537, Metabolic Activation: RAT, LIVER, S-9, AROCLOR 1254 (30%), Method: PREINCUBATION inactive; negative
